Laboratory results from patent publication US5582832A, “Compositions for topical application to skin” (priority 1995, dated 1996).

Legend:
Format in all cases: cell-based, human
[1] = system: 1,25D degradation (vitamin D metabolism in keratinocytes); experiment: Vitamin D metabolism in keratinocytes: 1,25D degradation; conditions: for % degradation (1,25D): Table 1
Protocol: (§1) 1. Normal human keratinocytes isolated from neonatal foreskins by trypsin treatment were grown in DME medium/10% fetal calf serum in the presence of irradiated 3T3 mouse fibroblasts for establishing dividing keratinocyte colonies. Keratinocytes were grown under the above condition until their third passage.
(§2) 80% confluent keratinocytes were incubated with 0.05 uCi of ^3 H-25D or ^3 H-1,25D for two hours or 20 hours in the presence of 1-100 uM of the different compounds. Reaction was stopped by addition of methanol and the cells and medium were extracted using chloroform:methanol. The chloroform layer was separated, dried and spotted on TLC plates. […] The amount of radioactivity in each lane was quantitated using the BioScan radioactive plate reader. The amount of radioactivity remaining in the peak area of 25D and 1,25D were calculated as % of control. The % remaining was subtracted from 100 to get the % degradation of the metabolites.
(§3) The data are expressed as mean of % degradation of 25D or 1,25D. The range is also given in parenthesis.

[2] = system: 25D degradation (vitamin D metabolism in keratinocytes); experiment: Vitamin D metabolism in keratinocytes: 25D degradation; conditions: for % degradation (25D): Table 1
Protocol: as §1, §2, §3

[3] = system: keratinocytes; experiment: Rate of DNA synthesis (3H-thymidine incorporation) in keratinocytes; conditions: for DNA synthesis, % of control (100 nM 1,25D + 5 uM ceramide Formula A): 10 uM azole (or no azole) + 100 nM 1,25D + 5 uM ceramide Formula A; for DNA synthesis, % of control (100 nM 1,25D + 5 uM ceramide Formula A) / keratinocyte DNA synthesis, % of the corresponding controls (10 uM Econazole) / keratinocyte DNA synthesis, % of the corresponding controls (no azole): * = synergistic effect; for keratinocyte DNA synthesis, % of the corresponding controls (1 uM Econazole) / keratinocyte DNA synthesis, % of the corresponding controls (10 uM Econazole) / keratinocyte DNA synthesis, % of the corresponding controls (no azole): Table 5; for keratinocyte DNA synthesis, % of the corresponding controls (1 uM Econazole): 1 uM ceramide + 1 uM Econazole; for keratinocyte DNA synthesis, % of the corresponding controls (10 uM Econazole): 1 uM ceramide + 10 uM Econazole; for keratinocyte DNA synthesis, % of the corresponding controls (no azole): 1 uM ceramide
Protocol: as §1
2. For the experiments, third passage keratinocytes were plated into a serum-free keratinocyte growth medium (KSFM; obtained from Life Technologies, Grand Island, N.Y.) containing 0.09 mM calcium. 20,000 to 30,000 cells were plated into each well of 24 well cell culture plates and grown for 5 days, until the cells reach about 80% confluence.
3. Medium was changed to fresh medium and the various test materials were added to the medium from an ethanolic stock solution (10:00 AM). The final ethanol concentration in the cultures was kept below 0.2%. Control cultures received no tested material but were dosed with 0.2% ethanol. Each compound or combination was tested in three separate wells. By 4:00 PM, 1 uCi of ^3 H-thymidine (Amersham Corp., Sp activity 40 Ci/mmol) was added to the 1 ml medium in each well. The cells were incubated overnight and […] (10:00 AM next day) the amount of ^3 -thymidine associated with the cellular DNA of keratinocytes was assessed as described below.
4. The medium was aspirated, and the wells washed with 1 ml phosphate-buffered saline. The DNA and proteins of the cells in the plate were then precipitated by adding 1 ml of ice-cold 10% trichloroacetic acid (TCA). The plates were left on ice for 30 minutes to complete the precipitation process. TCA was then aspirated and each well was then washed four times with 5% TCA. The plates were then dried on a filter pad and the cells in the wells were dissolved in 0.5 ml of 0.1N sodium hydroxide. The sodium hydroxide was then neutralized using 0.1N hydrochloric acid and the solution (1 ml total volume) was then transferred to a scintillation vial. 50 μl samples from each vial were used for protein assay using BCA protein assay reagent obtained from Pierce Chemical Company. 8 ml of a scintillation fluid (Ecolume) was added to the rest of the solution in the vial, and the vials were counted in a scintillation counter to determine the amount of radioactivity in each vial. The DNA synthesis rate was then calculated as cpm ^3 H thymidine incorporated into total cellular DNA/microgram of cell protein for each individual well. Mean and standard deviation for each group was also calculated.
Rationale for using 1,25D is that in in vivo situation, these azoles will inhibit the endogenous degradation of the 1,25D which is obtained from the circulation. Azoles will act in keratinocytes to increase the endogenous levels of 1,25D within cells. Keratinocytes (70% confluent) were incubated with 10 uM of the different azoles in the presence of 100 nM 1,25D. One of the groups was treated with 5 uM of ceramide of Formula A in the medium. After four hours, all the wells were treated with 1 uCi ^3 H-thymidine and the rate of DNA synthesis was estimated as described in the methods.
Keratinocytes were incubated with 1 or 10 uM of Econazole in the presence of 1 uM of the different ceramide analogues and 100 nM 1,25D in the medium. Thymidine incorporation was measured with an overnight incubation as described in Example 2.

[4] = Table 2, 1 uM, 20 hour incubation, mean of duplicate (range)
[5] = Tables 4A-4F, 100 nM 1,25D, azole 10 uM, ceramide Formula A 5 uM, mean + SD
[6] = Tables 5A-5I, 100 nM 1,25D, Econazole 10 uM, ceramide analogue 1 uM
[7] = Tables 5A-5I, 100 nM 1,25D, Econazole 10 uM, ceramide analogue 1 uM, mean + SD

Row | Structure (SMILES) | keratinocyte DNA synthesis, % of the corresponding controls (1 uM Econazole) ([3]; 100 nM 1,25D) | keratinocyte DNA synthesis, % of the corresponding controls (10 uM Econazole) ([3]; 100 nM 1,25D) | keratinocyte DNA synthesis, % of the corresponding controls (no azole) ([3]; 100 nM 1,25D) | DNA synthesis (% control) [3, 6] [% control] | DNA synthesis [3, 7] | other results
1 | Clc1ccc(COC(Cn2ccnc2)c2ccc(Cl)cc2Cl)c(Cl)c1 (stereo not shown) [Miconazole] | – | – | – | – | – | blocking of 1,25D degradation (in words) ([1]; 1 uM, 20 hours (Table 2)): did not block 1,25D degradation; % degradation (1,25D) ([1]; 10 uM compound): 70%; 1,25D degradation (%) [1, 4]: 75.8 (69.9-81.8) %; blocking of 25D degradation (in words) ([2]; 1 uM, 20 hours (Table 2)): effective with 25D; % degradation (25D) ([2]; 10 uM compound): 54%; 25D degradation (%) [2, 4]: 38.7 (35.4-42.0) %; DNA synthesis, % of control (100 nM 1,25D + 5 uM ceramide Formula A) ([3]; Table 4, mean + SD, 1440 min): 17.5 + 3.3 % of control; DNA synthesis, % of control (azole, only 100 nM 1,25D) ([3]; Table 4, 10 uM azole, 100 nM 1,25D, no ceramide, mean + SD, 1440 min): 42.8 + 1.8 % of control; DNA synthesis [3, 5]: 62806 + 2649 cpm 3H thymidine incorporated; DNA synthesis (% control) ([3]; Tables 4A-4F, 100 nM 1,25D, azole 10 uM, 1440 min): 42.8 % control
2 | CCCCCCCCCCCCCCCCOCC(O)CN(CCO)C(C)=O (stereo not shown) [Formula E] | 99.8 + 19.1% | 20.5 + 12.9% | 104.3 ± 17.7% | 104.4 | 31267 + 6143 cpm 3H thymidine incorporated | –
3 | CCCCCCCCCCCCC/C=C/C(O)C(CO)NC(C)=O (stereo not shown) [Formula A] | 75.9 + 23.3% | 38.2 + 13.9% | 97 + 32% | 97.7 | 29272 + 11126 cpm 3H thymidine incorporated | DNA synthesis, % of control (100 nM 1,25D + 5 uM ceramide Formula A) ([3]; Table 4, mean + SD, 1440 min): 81.1 + 16.5 % of control; DNA synthesis (% control) ([3]; Tables 4A-4F, 100 nM 1,25D, azole 10 uM, ceramide Formula A 5 uM, 1440 min): 74.14 % control; DNA synthesis [3, 5]: 108753 + 24719 cpm 3H thymidine incorporated
4 | CCCCCCCCCCCCCCC(O)CN(CCO)C(C)=O (stereo not shown) [Formula C] | 78.0 + 15.1% | 47.2 + 33.6% | 77.7 ± 7.4% | 77.7 | 23288 + 2737 cpm 3H thymidine incorporated | –
5 | CCCCCCCCCCCCCCCCN(CC(O)CO)C(=O)CCCCC (stereo not shown) [Formula G] | 84.8 + 12.7% | 28.2 + 15.2% | 102.8 ± 14.4% | 102.8 | 30794 + 5311 cpm 3H thymidine incorporated | –
6 | Cc1ncc(C[n+]2csc(CCO)c2C)c(N)n1 [Thiamine] | – | – | – | – | – | % degradation (1,25D) ([1]; 100 uM compound): 77%; % degradation (25D) ([2]; 100 uM compound): 85%
7 | CCCCCCCCCCCCC/C=C/C(O)C(CO)NC(=O)CCCCC (stereo not shown) [Formula B] | 123.9 + 30.3% | 61.7 + 17% | 126.6 ± 17.8% | 126 | 37927 + 6562 cpm 3H thymidine incorporated | –
